Key:
Puccinia recondita = experiment: Fungicidal activity against wheat leaf rust (WLR) disease, control value; assay type: in vivo; conditions: wheat leaf rust
Botrytis cinerae = experiment: Fungicidal activity against cucumber gray mold rot (CGM) disease, control value; assay type: in vivo; conditions: 100 ppm, cucumber gray mold rot
Rhizoctonia solani AG-1 = experiment: Fungicidal activity against rice sheath blight (RSB) disease, control value; conditions: 100 ppm, rice sheath blight
Phytophthora infestans = experiment: whole plant or invertebrate; assay type: in vivo; conditions: tomato late blight
Erysiphae graminis = experiment: Fungicidal activity against barley powdery mildew (BPM) disease, control value; assay type: in vivo; conditions: barley powdery mildew
[1] = system: Pyricularia oryzae Carvara KA301; experiment: whole plant or invertebrate; assay type: in vivo; conditions: rice blast

Row | SMILES | WLR control value (C.V.) (Puccinia recondita; 2 ppm) [%] | WLR control value (C.V.) (Puccinia recondita; 10 ppm) [%] | WLR control value (C.V.) (Puccinia recondita; 50 ppm) [%] | WLR control value (C.V.) (Puccinia recondita; 100 ppm) [%] | CGM control value (C.V.) (Botrytis cinerae) [%] | RSB control value (C.V.) (Rhizoctonia solani AG-1) [%] | TLB control value (C.V.) (Phytophthora infestans; 2 ppm) [%] | TLB control value (C.V.) (Phytophthora infestans; 10 ppm) [%] | TLB control value (C.V.) (Phytophthora infestans; 50 ppm) [%] | TLB control value (C.V.) (Phytophthora infestans; 100 ppm) [%] | BPM control value (C.V.) (Erysiphae graminis; 2 ppm) [%] | BPM control value (C.V.) (Erysiphae graminis; 10 ppm) [%] | BPM control value (C.V.) (Erysiphae graminis; 50 ppm) [%] | BPM control value (C.V.) (Erysiphae graminis; 100 ppm) [%] | RCB control value (C.V.) ([1]; 2 ppm) [%] | RCB control value (C.V.) ([1]; 10 ppm) [%] | RCB control value (C.V.) ([1]; 50 ppm) [%] | RCB control value (C.V.) ([1]; 100 ppm) [%]
1 | CO/N=C(/C(=O)OC)c1ccccc1CON=C(C)c1ccc(C=C(F)F)cc1 [Example 29, methyl-(E)-2-[[[[[2-[4-(2,2-difluorovinyl)phenyl](1-methyl)methylidene]amino]oxy]methyl]phenyl]-2-methoxyiminoacetate] | 100 | 100 | 100 | 100 | 24 | 30 | 100 | 100 | 100 | 100 | 15 | 60 | 93 | 100 | 100 | 100 | 100 | 100
2 | CNC(=O)/C(=N/OC)c1ccccc1CON=C(C)c1ccc(C=C(F)F)cc1 [Example 30, (E)-2-[[[[[2-[4-(2,2-difluorovinyl)phenyl](1-methyl)methylidene]amino]oxy]methyl]phenyl]-2-methoxyimino-N-methylacetamide] | 90 | 100 | 100 | 100 | 60 | 45 | 100 | 100 | 100 | 100 | – | – | 60 | 98 | 100 | 100 | 100 | 100
3 | CO/N=C(/C(=O)OC)c1ccccc1CON=C(C)c1cccc(C=C(F)Cl)c1 [Example 31, methyl-(E)-2-[[[[[2-[3-(2-chloro-2-fluorovinyl)phenyl](1-methyl)methylidene]amino]oxy]methyl]phenyl]-2-methoxyiminoacetate] | – | 40 | 90 | 100 | 43 | 30 | – | – | – | 60 | – | – | 60 | 90 | – | – | 70 | 95
4 | CNC(=O)/C(=N/OC)c1ccccc1CON=C(C)c1cccc(C=C(F)Cl)c1 [Example 32, (E)-2-[[[[[2-[3-(2-chloro-2-fluorovinyl)phenyl](1-methyl)methylidene]amino]oxy]methyl]phenyl]-2-methoxyimino-N-methylacetamide] | – | – | – | 82 | 34 | 65 | – | – | 55 | 93 | – | – | – | 80 | – | – | 90 | 97
5 | CO/N=C(/C(=O)OC)c1ccccc1CON=C(C)c1ccc(C=C(F)Cl)cc1 [Example 33, methyl-(E)-2-[[[[[2-[4-(2-chloro-2-fluorovinyl)phenyl](1-methyl)methylidene]amino]oxy]methyl]phenyl]-2-methoxyiminoacetate] | – | – | 40 | 90 | 15 | 67 | – | – | – | 60 | – | – | – | 80 | – | – | 70 | 95

Source: US8410302B2, “Methoxyimino compounds and fungicide composition comprising same” (Kyung Nong Corporation, priority 2007, dated 2013)
